PubChem BioAssay (NCI)
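The compound was tested at five concentrations on cells cultured in 96-well plates, with a 48-hour exposure period. The concentration for full growth arrest is given as TGI.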

Legend:
Assay in all cases: NCI-60 cell line screen, 48 h
SK-MEL-5 melanoma = system: SK-MEL-5 melanoma
SN12C renal = system: SN12C renal
TK-10 renal = system: TK-10 renal
BT-549 breast = system: BT-549 breast
SF-295 CNS = system: SF-295 CNS
HOP-62 NSCLC = system: HOP-62 NSCLC
NCI-H226 lung = system: NCI-H226 lung
A549 NSCLC = system: A549 NSCLC
HL-60(TB) leukemia = system: HL-60(TB) leukemia
HS 578T breast = system: HS 578T breast
MOLT-4 leukemia = system: MOLT-4 leukemia

## Cc1ccc(S(=O)(=O)N2CCN(S(=O)(=O)c3ccc(C)cc3)CCN(S(=O)(=O)c3ccc(C)cc3)Cc3cc(C#N)c(C#N)cc3CN(S(=O)(=O)c3ccc(C)cc3)CC2)cc1
SK-MEL-5 melanoma
  TGI: > 100 µM
SN12C renal
  TGI: > 100 µM
TK-10 renal
  TGI: > 100 µM
BT-549 breast
  TGI: > 100 µM
SF-295 CNS
  TGI: > 100 µM
HOP-62 NSCLC
  TGI: > 100 µM
NCI-H226 lung
  TGI: > 100 µM
A549 NSCLC
  TGI: > 100 µM
HL-60(TB) leukemia
  TGI: > 100 µM
HS 578T breast
  TGI: > 100 µM
MOLT-4 leukemia
  TGI: > 100 µM

## CCOc1ccc2nc3nc(=O)[nH]c(C)c3c(NCCCN(CC)CC)c2c1
SK-MEL-5 melanoma
  TGI: > 100 µM
SN12C renal
  TGI: > 100 µM
TK-10 renal
  TGI: > 100 µM
BT-549 breast
  TGI: > 100 µM
SF-295 CNS
  TGI: > 100 µM
HOP-62 NSCLC
  TGI: > 100 µM
NCI-H226 lung
  TGI: > 100 µM
A549 NSCLC
  TGI: > 100 µM
HL-60(TB) leukemia
  TGI: > 100 µM
HS 578T breast
  TGI: > 100 µM
MOLT-4 leukemia
  TGI: > 100 µM

## N#CC(N)c1ccc(OCCCCCCCCCCOc2ccc(C(N)C#N)cc2)cc1 (configuration not stated)
SK-MEL-5 melanoma
  TGI: > 100 µM
SN12C renal
  TGI: > 100 µM
TK-10 renal
  TGI: > 100 µM
BT-549 breast
  TGI: > 100 µM
SF-295 CNS
  TGI: > 100 µM
NCI-H226 lung
  TGI: > 100 µM
A549 NSCLC
  TGI: > 100 µM
HL-60(TB) leukemia
  TGI: > 100 µM
HS 578T breast
  TGI: > 100 µM
MOLT-4 leukemia
  TGI: > 100 µM

## N#Cc1cnc(-n2[nH]c3c(c2=O)CCCC3)[nH]c1=O
SK-MEL-5 melanoma
  TGI: > 100 µM
SN12C renal
  TGI: > 100 µM
TK-10 renal
  TGI: > 100 µM
BT-549 breast
  TGI: > 100 µM
SF-295 CNS
  TGI: > 100 µM
NCI-H226 lung
  TGI: > 100 µM
A549 NSCLC
  TGI: > 100 µM
HL-60(TB) leukemia
  TGI: > 100 µM
HS 578T breast
  TGI: > 100 µM
MOLT-4 leukemia
  TGI: > 100 µM

## O=C1c2cccnc2S(=O)(=O)N1c1ccc(Oc2ccccc2)cc1
SN12C renal
  TGI: > 100 µM
BT-549 breast
  TGI: > 100 µM
SF-295 CNS
  TGI: > 100 µM
HOP-62 NSCLC
  TGI: > 100 µM
NCI-H226 lung
  TGI: > 100 µM
A549 NSCLC
  TGI: > 100 µM
HL-60(TB) leukemia
  TGI: > 100 µM
MOLT-4 leukemia
  TGI: > 100 µM

## O=C(NC(=S)Nc1ccc2c(c1)Sc1ccccc1O2)c1ccc([N+](=O)[O-])cc1
SK-MEL-5 melanoma
  TGI: > 100 µM
SN12C renal
  TGI: > 100 µM
TK-10 renal
  TGI: > 100 µM
BT-549 breast
  TGI: > 100 µM
SF-295 CNS
  TGI: > 100 µM
HOP-62 NSCLC
  TGI: > 100 µM
NCI-H226 lung
  TGI: > 100 µM
A549 NSCLC
  TGI: > 100 µM
HL-60(TB) leukemia
  TGI: > 100 µM
HS 578T breast
  TGI: > 100 µM

## CCN(CC)C(=O)Cn1c(-c2ccccc2)cc2ccccc21
SK-MEL-5 melanoma
  TGI: 31.9 µM
SN12C renal
  TGI: > 100 µM
TK-10 renal
  TGI: > 100 µM
BT-549 breast
  TGI: 94.5 µM
HOP-62 NSCLC
  TGI: > 100 µM
NCI-H226 lung
  TGI: > 100 µM
A549 NSCLC
  TGI: > 100 µM
HL-60(TB) leukemia
  TGI: > 100 µM
HS 578T breast
  TGI: > 100 µM
MOLT-4 leukemia
  TGI: 42.7 µM

## COc1cc(C(=O)/C=C/c2ccc(OCCSCCCCCCCCCCSCCOc3ccc(/C=C/C(=O)c4cc(OC)c(OC)c(OC)c4)cc3)cc2)cc(OC)c1OC
SK-MEL-5 melanoma
  TGI: > 100 µM
SN12C renal
  TGI: > 100 µM
TK-10 renal
  TGI: > 100 µM
BT-549 breast
  TGI: > 100 µM
SF-295 CNS
  TGI: > 100 µM
HOP-62 NSCLC
  TGI: > 100 µM
A549 NSCLC
  TGI: > 100 µM
HL-60(TB) leukemia
  TGI: > 100 µM
HS 578T breast
  TGI: > 100 µM
MOLT-4 leukemia
  TGI: > 100 µM

## O=P1(Oc2ccccc2)N=P(c2ccccc2)(c2ccccc2)C=C(c2ccc(Cl)cc2)N1 (configuration not stated)
SK-MEL-5 melanoma
  TGI: 10.2 µM
SN12C renal
  TGI: 32.4 µM
TK-10 renal
  TGI: 26.8 µM
BT-549 breast
  TGI: 29.6 µM
SF-295 CNS
  TGI: 19.8 µM
HOP-62 NSCLC
  TGI: 33.6 µM
A549 NSCLC
  TGI: 16.1 µM
HL-60(TB) leukemia
  TGI: 20.5 µM
HS 578T breast
  TGI: 43.5 µM
MOLT-4 leukemia
  TGI: 22.4 µM

## Oc1cc(O)c2ccc(-c3ccc(O)c(O)c3)[o+]c2c1
SN12C renal
  TGI: > 100 µM
TK-10 renal
  TGI: > 100 µM
BT-549 breast
  TGI: > 100 µM
HOP-62 NSCLC
  TGI: > 100 µM
NCI-H226 lung
  TGI: > 100 µM
A549 NSCLC
  TGI: > 100 µM
HL-60(TB) leukemia
  TGI: > 100 µM
HS 578T breast
  TGI: > 100 µM
MOLT-4 leukemia
  TGI: > 100 µM

## C=CCc1[nH]c2c(OCc3ccccc3)cc(N(CC=C)C(C)=O)cc2c1C
SK-MEL-5 melanoma
  TGI: 24 µM
SN12C renal
  TGI: 32 µM
TK-10 renal
  TGI: 30 µM
BT-549 breast
  TGI: 29.3 µM
SF-295 CNS
  TGI: 33.5 µM
HOP-62 NSCLC
  TGI: 36.7 µM
NCI-H226 lung
  TGI: 37.2 µM
A549 NSCLC
  TGI: 26.2 µM
HL-60(TB) leukemia
  TGI: 39.9 µM
HS 578T breast
  TGI: 30.8 µM
MOLT-4 leukemia
  TGI: 30.7 µM

## CCCCCC1CC=CC(=O)O1 (configuration not stated)
SK-MEL-5 melanoma
  TGI: 26.8 µM
SN12C renal
  TGI: 21.2 µM
TK-10 renal
  TGI: 38.1 µM
BT-549 breast
  TGI: 33.7 µM
SF-295 CNS
  TGI: 35.6 µM
HOP-62 NSCLC
  TGI: 18.5 µM
A549 NSCLC
  TGI: 65.8 µM
HL-60(TB) leukemia
  TGI: > 100 µM
HS 578T breast
  TGI: 88.5 µM
MOLT-4 leukemia
  TGI: > 100 µM

## CC1=NN(C(=O)c2ccccc2O)C(=O)/C1=C/c1cccc(O)c1
SK-MEL-5 melanoma
  TGI: > 100 µM
SN12C renal
  TGI: > 100 µM
TK-10 renal
  TGI: > 100 µM
BT-549 breast
  TGI: > 100 µM
SF-295 CNS
  TGI: > 100 µM
NCI-H226 lung
  TGI: 83.2 µM
A549 NSCLC
  TGI: > 100 µM
HL-60(TB) leukemia
  TGI: > 100 µM
MOLT-4 leukemia
  TGI: > 100 µM

## O=C(O)CSC(CC1(c2ccc(Cl)cc2)NC(=O)CS1)c1ccc(Cl)cc1 (configuration not stated)
SK-MEL-5 melanoma
  TGI: > 100 µM
SN12C renal
  TGI: > 100 µM
TK-10 renal
  TGI: > 100 µM
BT-549 breast
  TGI: > 100 µM
SF-295 CNS
  TGI: > 100 µM
HOP-62 NSCLC
  TGI: > 100 µM
A549 NSCLC
  TGI: > 100 µM
HL-60(TB) leukemia
  TGI: > 100 µM
HS 578T breast
  TGI: > 100 µM
MOLT-4 leukemia
  TGI: > 100 µM

## CCCC(=O)Nc1cc(/C=C/C(=O)N2CC(CCl)c3c2cc(OCc2ccccc2)c2[nH]cc(C)c32)n(C)c1 (configuration not stated)
SK-MEL-5 melanoma
  TGI: 0.131 µM
SN12C renal
  TGI: > 25 µM
TK-10 renal
  TGI: 2.47 µM
BT-549 breast
  TGI: 3.14 µM
SF-295 CNS
  TGI: 0.334 µM
HOP-62 NSCLC
  TGI: 0.453 µM
NCI-H226 lung
  TGI: 0.941 µM
HL-60(TB) leukemia
  TGI: 0.26 µM
HS 578T breast
  TGI: 0.468 µM
MOLT-4 leukemia
  TGI: 0.61 µM

## Oc1ccc2c(c1)CCc1c-2n(CCN2CCOCC2)c2ccc(O)cc12
SK-MEL-5 melanoma
  TGI: 39 µM
SN12C renal
  TGI: > 100 µM
TK-10 renal
  TGI: > 100 µM
BT-549 breast
  TGI: > 100 µM
SF-295 CNS
  TGI: > 100 µM
HOP-62 NSCLC
  TGI: > 100 µM
NCI-H226 lung
  TGI: > 100 µM
HL-60(TB) leukemia
  TGI: > 100 µM
HS 578T breast
  TGI: > 100 µM
MOLT-4 leukemia
  TGI: > 100 µM

## CC1=NN(c2nc(N)nc(CBr)n2)C(C)(C)C1
SK-MEL-5 melanoma
  TGI: 26.2 µM
SN12C renal
  TGI: 20.5 µM
TK-10 renal
  TGI: 14.9 µM
BT-549 breast
  TGI: 28.9 µM
SF-295 CNS
  TGI: 24.8 µM
HOP-62 NSCLC
  TGI: 35.1 µM
NCI-H226 lung
  TGI: 12.2 µM
A549 NSCLC
  TGI: 37.1 µM
HS 578T breast
  TGI: 38.2 µM
MOLT-4 leukemia
  TGI: 4.72 µM

## COc1cc2nc(Nc3cccc(Br)c3)nc(Nc3cccc(Br)c3)c2cc1OC
SK-MEL-5 melanoma
  TGI: 30.7 µM
SN12C renal
  TGI: 31.4 µM
TK-10 renal
  TGI: 39.3 µM
BT-549 breast
  TGI: 30.7 µM
SF-295 CNS
  TGI: 32.7 µM
HOP-62 NSCLC
  TGI: 33.6 µM
A549 NSCLC
  TGI: 32.6 µM
HS 578T breast
  TGI: 38.5 µM
MOLT-4 leukemia
  TGI: 47.2 µM

## c1ccc2c(CN3CCN(Cc4c[nH]c5ccccc45)CC3)c[nH]c2c1
SK-MEL-5 melanoma
  TGI: 29.1 µM
SN12C renal
  TGI: 41.9 µM
TK-10 renal
  TGI: 29.1 µM
BT-549 breast
  TGI: 58.6 µM
SF-295 CNS
  TGI: 31.1 µM
HOP-62 NSCLC
  TGI: 31.2 µM
NCI-H226 lung
  TGI: 37.7 µM
HL-60(TB) leukemia
  TGI: 39.3 µM
HS 578T breast
  TGI: 36.2 µM

## Cc1cc(O)c2c(c1O)C(=O)c1cccc(O)c1C2=O
SK-MEL-5 melanoma
  TGI: > 100 µM
SN12C renal
  TGI: > 100 µM
TK-10 renal
  TGI: > 100 µM
BT-549 breast
  TGI: > 100 µM
SF-295 CNS
  TGI: > 100 µM
HOP-62 NSCLC
  TGI: > 100 µM
NCI-H226 lung
  TGI: > 100 µM
A549 NSCLC
  TGI: > 100 µM
HL-60(TB) leukemia
  TGI: > 100 µM
HS 578T breast
  TGI: > 100 µM

## COc1ccc(NC(=S)N/N=C\c2ccc(NC(C)=O)cc2)cc1
SK-MEL-5 melanoma
  TGI: > 100 µM
SN12C renal
  TGI: > 100 µM
TK-10 renal
  TGI: > 100 µM
BT-549 breast
  TGI: > 100 µM
SF-295 CNS
  TGI: > 100 µM
HOP-62 NSCLC
  TGI: > 100 µM
A549 NSCLC
  TGI: > 100 µM
HL-60(TB) leukemia
  TGI: > 100 µM
HS 578T breast
  TGI: > 100 µM
MOLT-4 leukemia
  TGI: > 100 µM
